In patent US20240327354A1, “GRAM-NEGATIVE BACTERIA EFFLUX PUMP INHIBITORS” (INSTITUT NATIONAL DE LA SANTÉ ET DE LA RECHERCHE MÉDICALE, priority 2021, published 2024):
Structures can show the parent of a compound that is named as a salt. Each block holds one compound with its values, some of them ahead of it.

Tests used:
E. coli BW25113 [1] = assay: Assay 4: boosting of antibiotic activity by EPI example 37 in E. coli; type: cell-based, Escherichia coli; settings: MIC of the named antibiotic boosted by 100 μM example 37
Text: (§1) Escherichia coli BW25113 (CGSC 7636) and its derivatives E. coli ΔtolC (JW5503-1, ΔtolC732::kan, CGSC 11430), E. coli ΔacrA (JW0452-3, ΔacrA748::kan, CGSC 11843) and E. coli ΔacrB (JW0451-2, ΔacrB747::kan, CGSC 8609) were obtained from E. coli Genetic Stock Center (CGSC, New Haven, Connecticut) and originated from the Keio Collection (Baba T et al, Mol Sys Biol, 2006). Klebsiella pneumoniae (LMG 2095/ATCC 13883) and K. pneumoniae (ATCC43816), Pseudomonas aeruginosa (PAO1), Acinetobacter baumannii (LMG 1025, ATCC 17978), were obtained from ATCC or BCCM/LMG Bacteria Collection. All bacteria were grown and tested in cation-adjusted Mueller-Hinton broth (CAMHB; BD Difco) at 37° C. For conservation, log phase bacteria were frozen (−80° C.) in CAMHB supplemented with 15% glycerol.
(§2) Measurement of the Impact of EPI Example 37 on the Boosting of Antibiotic Activity in E. coli, A. baumannii, K. pneumoniae and P. aeruginosa.
(§3) Bacterial suspensions were then prepared in CAMHB from a growing pre-culture, (E. coli [OD600=0.001], A. baumannii [OD600=0.001], K. pneumoniae [OD600=0.001] and P. aeruginosa [OD600=0.001]), and added to the microplate using a ViaFill. Microplate containing bacterial cultures were then grown (5 h or 24 h, 37° C.) and bacterial viability determined by either resazurin reduction or OD600.

K. pneumoniae ATCC43816 = assay: Assay 4: boosting of antibiotic activity by EPI example 37 in K. pneumoniae ATCC43816; type: cell-based, Klebsiella pneumoniae; settings: MIC of the named antibiotic boosted by 100 μM example 37
Text: as §1, §2, §3

K. pneumoniae ATCC13883 = assay: Assay 4: boosting of antibiotic activity by EPI example 37 in K. pneumoniae ATCC13883; type: cell-based, Klebsiella pneumoniae
Text: as §1, §2, §3

[2] = system: A. baumannii LMG 1025 (ATCC 17978); assay: Assay 3: growth inhibition of A. baumannii by sub-inhibitory novobiocin in combination with examples (resazurin reduction); type: cell-based, Acinetobacter baumannii
Text: as §1
Measurement of growth Inhibition of A. baumannii strains by sub Inhibitory concentrations of novobiocin In combination with examples 1-137
(§4) For the evaluation of the dose dependent activity of examples 1-137, their ability to boost the antibacterial activity of sub-inhibitory concentrations novobiocin was determined. Briefly, A. baumannii LMG 1025 (ATCC 17978) were diluted from frozen or growing stocks to an OD600 of 0.001 in CAMHB. The bacterial suspension was then used as such (no—antibiotic control to evaluate EPI activity), or spiked with novobiocin at a final concentration of 5 μg/mL. Bacteria were then added to microplates carrying serial dilutions of the compounds examples 1-137, and incubated for (5 h or 24 h, 37° C.). Bacterial viability was evaluated using the resazurin reduction assay, and measured by fluorescence (POLARstar Omega, BMG Labtech: Ex: 530 nm Em: 590 nm). […] were defined as the compound concentration that prevented 90% of resazurin turnover compared to the non-treated bacteria.

E. coli BW25113 [3] = assay: Assay 1: growth inhibition of E. coli by sub-inhibitory pyridomycin in combination with examples (resazurin reduction); type: cell-based, Escherichia coli; settings: read-out: EC50 on E. coli with 8 μg/mL of pyridomycin, 8 μg/mL pyridomycin, 5 h, 37° C.
Summary of the method: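 E. coli BW25113 at OD600 0.0004–0.001 was grown in CAMHB at 37 °C. Viability was read by resazurin reduction fluorescence (Ex 530/Em 590 nm). EC50 is the concentration preventing 50% of resazurin turnover relative to untreated bacteria.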

[4] = system: A. baumannii LMG 1025 (ATCC 17978); assay: Assay 2: growth inhibition of A. baumannii by sub-inhibitory chloramphenicol in combination with examples (resazurin reduction); type: cell-based, Acinetobacter baumannii; settings: read-out: EC90 on A. baumannii with 10 μg/mL of chloramphenicol, 10 μg/mL chloramphenicol, 5 h or 24 h, 37° C.
Text: as §1
Measurement of Growth Inhibition of A. baumannii Strains by Sub Inhibitory Concentrations of Chloramphenicol in Combination with Examples 1-137
as §4, with “concentrations chloramphenicol” for “concentrations novobiocin”, “such (no-antibiotic” for “such (no—antibiotic”, “with chloramphenicol” for “with novobiocin”, “of 10” for “of 5”

[5] = MIC of the named antibiotic boosted by 100 μM example 37
[6] = 5 μg/mL novobiocin, 5 h or 24 h, 37° C., read-out: EC90 on A. baumannii with 5 μg/mL of novobiocin

SMILES: CC1(C)S[C@@H]2[C@H](NC(=O)[C@H](N)c3ccccc3)C(=O)N2[C@H]1C(=O)O [Ampicillin (AMP), Ampicillin]
E. coli BW25113 Fold Boosted MIC By 100 μM example 37 (E. coli BW25113 [1]): * (* = 2-3.9 fold)

K. pneumoniae ATCC43816 Fold Boosted MIC By 100 μM example 37 (K. pneumoniae ATCC43816): * (* = 2-3.9 fold)
SMILES: CO/N=C(\C(=O)N[C@@H]1C(=O)N2C(C(=O)[O-])=C(C[N+]3(C)CCCC3)CS[C@H]12)c1csc(N)n1 [Cefepime (CEP), Cefepime]

SMILES: O=C(O)c1cn(C2CC2)c2cc(N3CCNCC3)c(F)cc2c1=O [Ciprofloxacin (CIP), Ciprofloxacin]
K. pneumoniae ATCC13883 Fold Boosted MIC By 100 μM example 37 (K. pneumoniae ATCC13883; [5]): *** (*** = 8 fold +)
K. pneumoniae ATCC43816 Fold Boosted MIC By 100 μM example 37 (K. pneumoniae ATCC43816): *** (*** = 8 fold +)
E. coli BW25113 Fold Boosted MIC By 100 μM example 37 (E. coli BW25113 [1]): *** (*** = 8 fold +)

SMILES: CC[C@H]1OC(=O)[C@H](C)[C@@H](O[C@H]2C[C@@](C)(OC)[C@@H](O)[C@H](C)O2)[C@H](C)[C@@H](O[C@@H]2O[C@H](C)C[C@H](N(C)C)[C@H]2O)[C@](C)(O)C[C@@H](C)C(=O)[C@H](C)[C@@H](O)[C@]1(C)O [Erythromycin (ERY), Erythromycin]
K. pneumoniae ATCC13883 Fold Boosted MIC By 100 μM example 37 (K. pneumoniae ATCC13883; [5]): *** (*** = 8 fold +)
K. pneumoniae ATCC43816 Fold Boosted MIC By 100 μM example 37 (K. pneumoniae ATCC43816): ** (** = 4-7.9 fold)
E. coli BW25113 Fold Boosted MIC By 100 μM example 37 (E. coli BW25113 [1]): ** (** = 4-7.9 fold)

SMILES: Brc1cnc(N[C@H]2[C@@H]3CNC[C@@H]32)c2ccccc12 [Example 58, N-[(1R,5S)-3-azabicyclo[3.1.0]hexan-6-yl]-4-bromo-isoquinolin-1-amine;hydrochloride]
EC90 [2, 6]: 100 to 500 µM
EC50 (E. coli BW25113 [3]): 5 to 100 µM
EC90 [4]: 100 to 500 µM

SMILES: NCc1cccc(-c2ccc3nc(N4CCNCC4)c(Cl)cc3c2)c1 [Example 66, [3-(3-chloro-2-piperazin-1-yl-6-quinolyl)phenyl]methanamine;dihydrochloride]
EC90 [2, 6]: 5 to 100 µM
EC50 (E. coli BW25113 [3]): < 5 µM
EC90 [4]: 5 to 100 µM

SMILES: CNCc1cccc(-c2ccc3nc(N4CCNCC4)c(Cl)cc3c2)c1 [Example 109, 1-[3-(3-chloro-2-piperazin-1-yl-6-quinolyl)phenyl]-N-methyl-methanamine;dihydrochloride]
EC90 [2, 6]: 5 to 100 µM
EC50 (E. coli BW25113 [3]): < 5 µM
EC90 [4]: 5 to 100 µM

SMILES: COc1c(CN)cccc1-c1ccc2nc(N3CCNCC3)c(Cl)cc2c1 [Example 118, [3-(3-chloro-2-piperazin-1-yl-6-quinolyl)-2-methoxy-phenyl]methanamine;dihydrochloride]
EC90 [2, 6]: 5 to 100 µM
EC50 (E. coli BW25113 [3]): < 5 µM

SMILES: Cc1ccc(CN)cc1-c1ccc2nc(N3CCNCC3)c(Cl)cc2c1 [Example 119, [3-(3-chloro-2-piperazin-1-yl-6-quinolyl)-4-methyl-phenyl]methanamine;dihydrochloride]
EC90 [2, 6]: 5 to 100 µM
EC50 (E. coli BW25113 [3]): < 5 µM

SMILES: COc1ccc(CN)cc1-c1ccc2nc(N3CCNCC3)c(Cl)cc2c1 [Example 120, [3-(3-chloro-2-piperazin-1-yl-6-quinolyl)-4-methoxy-phenyl]methanamine;dihydrochloride]
EC90 [2, 6]: 5 to 100 µM
EC50 (E. coli BW25113 [3]): < 5 µM

SMILES: NCc1ccc(Cl)c(-c2ccc3nc(N4CCNCC4)c(Cl)cc3c2)c1 [Example 121, [4-chloro-3-(3-chloro-2-piperazin-1-yl-6-quinolyl)phenyl]methanamine;dihydrochloride]
EC90 [2, 6]: 5 to 100 µM
EC50 (E. coli BW25113 [3]): < 5 µM

SMILES: Cc1cc(CN)cc(-c2ccc3nc(N4CCNCC4)c(Cl)cc3c2)c1 [Example 123, [3-(3-chloro-2-piperazin-1-yl-6-quinolyl)-5-methyl-phenyl]methanamine;dihydrochloride]
EC90 [2, 6]: 5 to 100 µM
EC50 (E. coli BW25113 [3]): < 5 µM

SMILES: COc1cc(CN)cc(-c2ccc3nc(N4CCNCC4)c(Cl)cc3c2)c1 [Example 124, [3-(3-chloro-2-piperazin-1-yl-6-quinolyl)-5-methoxy-phenyl]methanamine;dihydrochloride]
EC90 [2, 6]: 5 to 100 µM
EC50 (E. coli BW25113 [3]): < 5 µM

SMILES: NCc1cc(-c2ccc3nc(N4CCNCC4)c(Cl)cc3c2)cc(C(F)(F)F)c1 [Example 125, [3-(3-chloro-2-piperazin-1-yl-6-quinolyl)-5-(trifluoromethyl)phenyl]methanamine;dihydrochloride]
EC90 ([2]; read-out: EC90 on A. baumannii with 5 μg/mL of novobiocin, 5 μg/mL novobiocin, 5 h or 24 h, 37° C.): 5 to 100 µM
EC50 (E. coli BW25113 [3]): < 5 µM

SMILES: Cc1ccc(-c2ccc3nc(N4CCNCC4)c(Cl)cc3c2)cc1CN [Example 126, [5-(3-chloro-2-piperazin-1-yl-6-quinolyl)-2-methyl-phenyl]methanamine;dihydrochloride]
EC90 [2, 6]: 5 to 100 µM
EC50 (E. coli BW25113 [3]): < 5 µM

SMILES: COc1ccc(-c2ccc3nc(N4CCNCC4)c(Cl)cc3c2)cc1CN [Example 127, [5-(3-chloro-2-piperazin-1-yl-6-quinolyl)-2-methoxy-phenyl]methanamine;dihydrochloride]
EC90 [2, 6]: 5 to 100 µM
EC50 (E. coli BW25113 [3]): < 5 µM

SMILES: NCc1cc(-c2ccc3nc(N4CCNCC4)c(Cl)cc3c2)ccc1Cl [Example 128, [2-chloro-5-(3-chloro-2-piperazin-1-yl-6-quinolyl)phenyl]methanamine;dihydrochloride]
EC90 [2, 6]: 5 to 100 µM
EC50 (E. coli BW25113 [3]): < 5 µM

SMILES: NCc1cc(-c2ccc3nc(N4CCNCC4)c(Cl)cc3c2)ccc1C(F)(F)F [Example 129, [5-(3-chloro-2-piperazin-1-yl-6-quinolyl)-2-(trifluoromethyl)phenyl]methanamine;dihydrochloride]
EC90 [2, 6]: 5 to 100 µM
EC50 (E. coli BW25113 [3]): < 5 µM

SMILES: NCc1cc(-c2ccc3nc(N4CCNCC4)c(Cl)cc3c2)ccc1F [Example 130, [5-(3-chloro-2-piperazin-1-yl-6-quinolyl)-2-fluoro-phenyl]methanamine;dihydrochloride]
EC90 [2, 6]: 5 to 100 µM
EC50 (E. coli BW25113 [3]): < 5 µM
EC90 [4]: 5 to 100 µM

SMILES: Clc1cc2cc(-c3cccc4c3CCNC4)ccc2nc1N1CCNCC1 [Example 133, 3-chloro-2-piperazin-1-yl-6-(1,2,3,4-tetrahydroisoquinolin-5-yl)quinoline;dihydrochloride]
EC90 [2, 6]: 5 to 100 µM
EC50 (E. coli BW25113 [3]): < 5 µM

SMILES: Clc1cc2cc(-c3ccc4c(c3)CNC4)ccc2nc1N1CCNCC1 [Example 135, 3-chloro-6-isoindolin-5-yl-2-piperazin-1-yl-quinoline;dihydrochloride]
EC90 [2, 6]: 5 to 100 µM
EC50 (E. coli BW25113 [3]): < 5 µM

SMILES: CC(=O)O[C@H]1C[C@@]2(C)[C@@H](C[C@@H](O)[C@H]3[C@@]4(C)CC[C@@H](O)[C@@H](C)[C@@H]4CC[C@@]32C)/C1=C(\CCC=C(C)C)C(=O)O [Fusidic Acid (FUS), Fusidic Acid]
K. pneumoniae ATCC13883 Fold Boosted MIC By 100 μM example 37 (K. pneumoniae ATCC13883; 100 μM example 37): 2-4 fold
K. pneumoniae ATCC43816 Fold Boosted MIC By 100 μM example 37 (K. pneumoniae ATCC43816): ** (** = 4-7.9 fold)
E. coli BW25113 Fold Boosted MIC By 100 μM example 37 (E. coli BW25113 [1]): *** (*** = 8 fold +)

SMILES: CN(C)[C@@H]1C(O)=C(C(N)=O)C(=O)[C@@]2(O)C(O)=C3C(=O)c4c(O)cccc4[C@@](C)(O)[C@H]3C[C@@H]12 [Tetracycline (TET), Tetracycline]
K. pneumoniae ATCC13883 Fold Boosted MIC By 100 μM example 37 (K. pneumoniae ATCC13883; [5]): * (* = 2-3.9 fold)
E. coli BW25113 Fold Boosted MIC By 100 μM example 37 (E. coli BW25113 [1]): * (* = 2-3.9 fold)
